Reference: publication PMC7072329, “Discovery of Kynurenines Containing Oligopeptides as Potent Opioid Receptor Agonists” (Biomolecules, 2020)
Where a SMILES comes first, the peptide text is derived from it. [ ]: non-standard residue; d: D form. Kyn = Nc1ccccc1C(=O)C[C@H](N)C(=O)O

Assays:
CD-1 male mice [1] = test: formalin test; format: in vivo; settings: s.c. in hind paw, 100 μg/20 μL, 15 min before formalin
Experimental: (§1) In our experiments, we used CD-1 male mice (Harlan, Italy, 25–30 g) maintained in colony, housed in cages (7 mice per cage) under standard light/dark cycle (from 7:00 a.m. to 7:00 p.m.), temperature (21 ± 1 °C) and relative humidity (60% ± 10%) for at least 1 week. Food and water were available ad libitum. The Service for Biotechnology and Animal Welfare of the Istituto Superiore di Sanità and the Italian Ministry of Health authorized the experimental protocol according to Legislative Decree 26/14.
DMSO was purchased from Merck (Rome, Italy). Peptides solutions were freshly prepared using saline containing 0.9% NaCl and DMSO in the ratio DMSO/saline 1:5 v/v every experimental day. These solutions were injected at a volume of 10 μL/mouse for intracerebroventricular (i.c.v.) administrations or at a volume of 20 μL/mouse for subcutaneous administrations.
In the formalin test, the injection of a dilute solution of formalin (1%, 20 μL/paw) into the dorsal surface of the mouse hind paw evoked biphasic nociceptive behavioral responses, such as licking, biting the injected paw, or both, occurring from 0 to 10 min after formalin injection (the early phase) and a prolonged phase, occurring from 15 to 40 min (the late phase). Before the test, mice were individually placed in a Plexiglas observation cage (30 × 14 × 12 cm) for one hour, to acclimatize to the testing environment. The total time the animal spent licking or biting its paw during the early and late phase of formalin-induced nociception was recorded.
Experimental data were expressed as mean ± s.e.m. In the tail flick test, significant differences among the groups were evaluated with two-way ANOVA followed by Sidak’s multiple comparisons test. Formalin test data were analyzed by using one-way ANOVA, followed by Holm–Sidak’s multiple comparisons test. […] Statistical significance was set at p < 0.05. The data and statistical analysis comply with the recommendations on experimental design and analysis in pharmacology.
Early phase represents the formalin-induced nociceptive behavior recorded from 0 to 10 min after formalin injection; late phase is for the formalin-induced nociceptive behavior recorded from 15 to 40 min after formalin injection. V is for vehicle-treated animals. Statistical analysis: one-way ANOVA followed by Holm–Sidak’s multiple comparisons test. ** is for p < 0.01 and *** is for p < 0.001 vs. V. n = 7.

CD-1 male mice [2] = test: tail flick test; format: in vivo; settings: i.c.v., 10 μg/10 μL, 15 to 120 min
Experimental: as §1
DMSO was purchased from Merck (Rome, Italy). Peptides solutions were freshly prepared using saline containing 0.9% NaCl and DMSO in the ratio DMSO/saline 1:5 v/v every experimental day. […]
The tail flick latency was obtained using a commercial unit (Ugo Basile, Gemonio, Italy), consisting of an infrared radiant light source (100 W, 15 V bulb) focused onto a photocell utilizing an aluminum parabolic mirror. […] Radiant heat was focused 3–4 cm from the tip of the tail, and the latency (s) of the tail withdrawal to the thermal stimulus was recorded. […] The baseline latency was calculated as mean of three readings recorded before testing at intervals of 15 min and the time course of latency determined at 15, 30, 45, 60, 90, and 120 min after treatment. […]
Experimental data were expressed as mean ± s.e.m. […]

`C[C@@H](NC(=O)[C@@H](N)Cc1ccc(O)cc1)C(=O)NCC(=O)N[C@@H](Cc1ccccc1)C(=O)N[C@@H](CC(=O)c1ccccc1N)C(N)=O` [Peptide K6] (H-Y[dA]GF[Kyn]-NH2) was tested. Which “formalin-induced nociceptive behavior, early phase” value (CD-1 male mice [1]; 0 to 10 min) did it give?
Its value is “able to reduce the nociceptive response to formalin in the early phase”.

What about the “formalin-induced nociceptive behavior, late phase” value (CD-1 male mice [1]; 15 to 40 min) of the same compound?
The value was “light but not significant reduction”.

What about the “effect on time of response to thermal nociceptive stimuli (tail flick)” value (CD-1 male mice [2]) of the same compound?
Its value is “greatly increase the time of response to thermal nociceptive stimuli”.
